From ChEMBL document CHEMBL4715901, “Degradation of Signal Transducer and Activator of Transcription Proteins in Cancer Therapeutics” (ACS Med Chem Lett, 2021)

Tests used:
[1] = molecular target: Protein cereblon/Signal transducer and activator of transcription 1-alpha/beta (Homo sapiens, UniProt P42224+Q96SW2); experiment: Protac activity at E3 ubiquitin ligase/STAT1 in human MOLM-16 cells assessed as degradation of STAT1 incubated for 4 hrs by fluorescent immunoblotting analysis; assay type: cell-based
Chain of Protein cereblon/Signal transducer and activator of transcription 1-alpha/beta (P42224 whole entry): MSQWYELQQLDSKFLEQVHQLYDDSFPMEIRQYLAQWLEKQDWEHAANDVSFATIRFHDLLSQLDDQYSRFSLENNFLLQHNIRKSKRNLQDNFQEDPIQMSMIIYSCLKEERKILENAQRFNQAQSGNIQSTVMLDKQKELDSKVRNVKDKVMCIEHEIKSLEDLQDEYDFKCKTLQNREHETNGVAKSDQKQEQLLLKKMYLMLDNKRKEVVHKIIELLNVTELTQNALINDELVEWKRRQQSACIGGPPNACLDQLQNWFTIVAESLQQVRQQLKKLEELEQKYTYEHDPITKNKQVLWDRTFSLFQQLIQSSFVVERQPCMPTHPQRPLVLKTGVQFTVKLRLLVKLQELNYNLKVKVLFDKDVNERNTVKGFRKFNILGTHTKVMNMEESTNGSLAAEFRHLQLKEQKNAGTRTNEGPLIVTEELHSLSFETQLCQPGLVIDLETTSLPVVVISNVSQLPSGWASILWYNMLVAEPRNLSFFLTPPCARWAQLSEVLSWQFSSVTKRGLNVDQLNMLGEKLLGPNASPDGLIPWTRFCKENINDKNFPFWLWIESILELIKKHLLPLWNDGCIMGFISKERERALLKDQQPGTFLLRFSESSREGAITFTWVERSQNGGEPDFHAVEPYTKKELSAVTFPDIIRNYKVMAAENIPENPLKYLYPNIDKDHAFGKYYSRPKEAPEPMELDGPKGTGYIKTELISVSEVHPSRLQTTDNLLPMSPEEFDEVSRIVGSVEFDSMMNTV
Chain of Protein cereblon/Signal transducer and activator of transcription 1-alpha/beta (Q96SW2 whole entry): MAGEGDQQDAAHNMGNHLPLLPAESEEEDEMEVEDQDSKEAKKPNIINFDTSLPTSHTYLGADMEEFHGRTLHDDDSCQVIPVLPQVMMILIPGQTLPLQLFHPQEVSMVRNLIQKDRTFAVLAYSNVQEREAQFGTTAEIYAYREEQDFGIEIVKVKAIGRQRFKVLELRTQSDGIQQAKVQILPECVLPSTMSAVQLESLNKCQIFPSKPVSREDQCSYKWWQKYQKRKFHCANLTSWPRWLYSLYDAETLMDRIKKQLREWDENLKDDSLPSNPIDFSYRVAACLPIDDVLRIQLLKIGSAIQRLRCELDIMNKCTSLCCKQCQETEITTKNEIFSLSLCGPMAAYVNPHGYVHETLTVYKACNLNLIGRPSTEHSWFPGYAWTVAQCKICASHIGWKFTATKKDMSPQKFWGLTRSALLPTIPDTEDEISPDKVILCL

[2] = molecular target: Protein cereblon/Signal transducer and activator of transcription 3 (Homo sapiens, UniProt P40763+Q96SW2); experiment: Protac activity at E3 ubiquitin ligase/STAT3 in human MOLM-16 cells assessed as degradation of STAT3 incubated for 4 hrs by fluorescent immunoblotting analysis; assay type: cell-based
Chain of Protein cereblon/Signal transducer and activator of transcription 3 (P40763 whole entry): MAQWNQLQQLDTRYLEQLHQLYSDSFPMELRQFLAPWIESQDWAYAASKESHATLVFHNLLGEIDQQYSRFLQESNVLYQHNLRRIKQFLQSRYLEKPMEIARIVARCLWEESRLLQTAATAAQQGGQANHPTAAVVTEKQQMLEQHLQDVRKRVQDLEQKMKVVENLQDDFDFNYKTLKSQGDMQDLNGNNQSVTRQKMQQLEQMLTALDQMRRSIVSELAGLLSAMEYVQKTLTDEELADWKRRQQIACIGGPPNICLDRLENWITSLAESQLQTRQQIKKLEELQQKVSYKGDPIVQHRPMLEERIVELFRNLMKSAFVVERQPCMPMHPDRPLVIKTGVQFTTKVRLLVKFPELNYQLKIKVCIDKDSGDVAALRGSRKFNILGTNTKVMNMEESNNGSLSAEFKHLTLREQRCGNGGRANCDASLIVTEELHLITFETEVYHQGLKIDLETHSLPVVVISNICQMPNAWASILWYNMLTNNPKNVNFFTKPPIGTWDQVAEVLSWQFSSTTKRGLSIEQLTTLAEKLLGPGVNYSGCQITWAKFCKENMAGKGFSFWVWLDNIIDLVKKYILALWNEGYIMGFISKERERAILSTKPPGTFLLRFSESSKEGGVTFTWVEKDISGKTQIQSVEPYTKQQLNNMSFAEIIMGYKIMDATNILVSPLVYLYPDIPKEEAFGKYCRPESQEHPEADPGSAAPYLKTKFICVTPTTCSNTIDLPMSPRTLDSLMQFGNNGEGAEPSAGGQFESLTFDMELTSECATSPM
Chain of Protein cereblon/Signal transducer and activator of transcription 3 (Q96SW2 whole entry): as the sequence (Q96SW2 whole entry) above

| SMILES | DC50 [1] [nM] | DC50 [2] [nM] |
| --- | --- | --- |
| CC(C)(C)c1ccc(C[C@H](NC(=O)[C@H](CCC(N)=O)NC(=O)[C@@H]2CC[C@@H]3CCN(CC(F)F)C[C@H](NC(=O)c4cc5cc(C(F)(F)P(=O)(O)O)ccc5s4)C(=O)N32)C(=O)N2CCC(CCC#Cc3cccc4c3CN(C3CCC(=O)NC3=O)C4=O)CC2)cc1 (some centres not stated) | < 250 | < 250 |
| CCN1CC[C@H]2CC[C@@H](C(=O)N[C@@H](CCC(N)=O)C(=O)N[C@@H](Cc3ccc(NS(=O)(=O)c4ccc(C)cc4)cc3)C(=O)N3CCC(CCC#Cc4cccc5c4CN(C4CCC(=O)NC4=O)C5=O)CC3)N2C(=O)[C@@H](NC(=O)c2cc3cc(C(F)(F)P(=O)(O)O)ccc3s2)C1 (some centres not stated) | 250 | < 250 |
| CCN1CC[C@H]2CC[C@@H](C(=O)N[C@@H](CCC(N)=O)C(=O)N[C@@H](Cc3ccc(S(=O)(=O)c4ccccc4)cc3)C(=O)N3CCC(CCC#Cc4cccc5c4CN(C4CCC(=O)NC4=O)C5=O)CC3)N2C(=O)[C@@H](NC(=O)c2cc3cc(C(F)(F)P(=O)(O)O)ccc3s2)C1 (some centres not stated) | 250 | < 250 |
| COC(=O)N1CC[C@H]2CC[C@@H](C(=O)N[C@@H](CCC(N)=O)C(=O)N[C@@H](Cc3ccc(C(C)(C)C)cc3)C(=O)N3CCC(CCC#Cc4cccc5c4CN(C4CCC(=O)NC4=O)C5=O)CC3)N2C(=O)[C@@H](NC(=O)c2cc3cc(C(F)(F)P(=O)(O)O)ccc3s2)C1 (some centres not stated) | 250 | < 250 |
| CCN1CC[C@H]2CC[C@@H](C(=O)N[C@@H](CCC(N)=O)C(=O)N[C@@H](Cc3ccc(S(=O)(=O)C4CC4)cc3)C(=O)N3CCC(CCC#Cc4cccc5c4CN(C4CCC(=O)NC4=O)C5=O)CC3)N2C(=O)[C@@H](NC(=O)c2cc3cc(C(F)(F)P(=O)(O)O)ccc3s2)C1 (some centres not stated) | 500 | < 250 |
| CCN1CC[C@H]2CC[C@@H](C(=O)N[C@@H](CNC(N)=O)C(=O)N[C@@H](Cc3ccc(C(C)(C)C)cc3)C(=O)N3CCC(CCC#Cc4cccc5c4CN(C4CCC(=O)NC4=O)C5=O)CC3)N2C(=O)[C@@H](NC(=O)c2cc3cc(C(F)(F)P(=O)(O)O)ccc3s2)C1 (some centres not stated) | > 1000 | < 250 |
